Reference: ChEMBL document CHEMBL5046321, “Discovery by Virtual Screening of an Inhibitor of CDK5-Mediated PPARγ Phosphorylation” (ACS Med Chem Lett, 2022)
≈ marks a conversion by molar mass, not a printed value.

Experiments:
[1] = Cmax in lean C57BL/6J mouse at 100 umol/kg, po dosed daily for 7 days by HPLC-MS analysis; format: ADME, organism-based; parameters: route oral, dose 100 µmol/kg, time 7 day; settings: in vivo
[2] = Metabolic stability in human Hepatocyte assessed as intrinsic clearance in 1 million cells/mL measured upto 60 mins by LC-MS/MS analysis; format: ADME, cell-based; settings: hepatocytes, read-out: CLH
[3] = Apparent permeability in human Caco-2 cells at 10 uM incubated for 45 to 120 mins by LC-MS/MS analysis; format: ADME, cell-based; settings: time 45-120 min, read-out: permeability
[4] = Aqueous solubility of the compound by LC-MS/MS analysis; format: physicochemical; settings: buffer
[5] = Half life in lean C57BL/6J mouse at 100 umol/kg, po dosed daily for 7 days by HPLC-MS analysis; format: ADME, organism-based; settings: in vivo, dose 100 µmol/kg, time 7 day
[6] = Lipophilicity, logD of compound at pH 7.4 by shake flask assay based LC-MS/MS analysis; format: physicochemical; settings: buffer
[7] = Metabolic stability in mouse Hepatocyte assessed as intrinsic clearance in 1 million cells/mL by LC-MS/MS analysis; format: ADME, cell-based; settings: hepatocytes, read-out: CLH
[8] = Metabolic stability in human liver microsomes assessed as intrinsic clearance measured upto 30 mins by LC-MS/MS analysis; format: ADME, Microsome; settings: read-out: CLH
[9] = Metabolic stability in rat Hepatocyte assessed as intrinsic clearance in 1 million cells/mL measured upto 120 mins by LC-MS/MS analysis; format: ADME, cell-based; settings: hepatocytes, read-out: CLH
[10] = Oral bioavailability in lean C57BL/6J mouse at 100 umol/kg dosed daily for 7 days by HPLC-MS analysis; format: ADME, organism-based; settings: in vivo, at 100 µmol/kg, time 7 day

- Cmax [1]: 167 µM
- hepatocyte CLint [2]: 15.2 µL/min/1e6 cells
- Papp at 10 µM [3]: 13 ×10⁻⁶ cm/s
- solubility [4]: 324 µM (≈ 143 µg/mL)
- half-life [5]: 5 h
- logD [6]: 2.3
- hepatocyte CLint [7]: 10 µL/min/1e6 cells
- microsomal CLint [8]: < 4 µL/min/mg
- hepatocyte CLint [9]: 8.8 µL/min/1e6 cells
- bioavailability [10]: 109%
Compound: O=C(O)c1nn(Cc2ccc(Cl)c(Cl)c2)c(=O)c2cc(Oc3ccccc3)ccc12
